In patent US20050101595A1, “N-containing cycloalkyl-substituted amino-thiazole derivatives and pharmaceutical compositions for inhibiting cell proliferation and methods for their use” (PFIZER INC., priority 2003, published 2005):
Structures can show the parent of a compound that is named as a salt.

Tested on: HCT-116 cell line
Experiment: Inhibition of cell growth, tetrazolium salt (MTT) assay
Format: cell-based
Settings: HCT116 cells; compound at 250 nM
Protocol: Inhibition of Cell Growth: Assessment of Cytotoxicity:
Inhibition of cell growth was measured using the tetrazolium salt assay, which is based on the ability of viable cells to reduce 3-(4,5-dimethylthiazol-2-yl)-2,5-[2H]-diphenyltetrazolium bromide (MTT) to formazan (Mossman, Journal of Immunological Methods, vol. 65 (1983), pp. 55-58). The water-insoluble purple formazan product was then detected spectrophotometrically. The HCT-116 cell line was used as a representative cancer cell line and grown in 96-well plates. Cells were plated in McCoy's 5A Medium at a volume of 135 μl/well. Plates were incubated for four hours before addition of inhibitor compounds. Different concentrations of inhibitor compounds were added in 0.5% (v/v) dimethylsulfoxide (15 μLuwell), and cells were incubated at 37° C. (5% CO2) for three to five days. At the end of the incubation, MTT was added to a final concentration of 0.2 mg/mL, and cells were incubated for 4 hours more at 37° C. After centrifugation of the plates and removal of medium, the absorbance of the formazan (solubilized in dimethylsulfoxide) was measured at 540 nm. […] All results were compared to control cells treated only with 0.5% (v/v) dimethylsulfoxide.

With `CC1CCCN1CCS(=O)(=O)N1CCC(Nc2nc(N)c(C(=O)c3c(F)cccc3F)s2)CC1` (racemic) [Example S40] the “% Inhibition HCT116 @ 250 nM” value was 93%.

Same assay, conditions: HCT116 cells; compound at 250 nM; 0.25 µM

Going from `N#CCNCCS(=O)(=O)N1CCC(Nc2nc(N)c(C(=O)c3c(F)cccc3F)s2)CC1` [Example S128] to `CC(=O)NCCNCCS(=O)(=O)N1CCC(Nc2nc(N)c(C(=O)c3c(F)cccc3F)s2)CC1` [Example S113], the “% Inhibition HCT116 @ 250 nM” value falls from 86% to 51%.

For `Nc1nc(NC2CCN(S(=O)(=O)CCNCc3cccnc3)CC2)sc1C(=O)c1c(F)cccc1F` [Example S84], the “% Inhibition HCT116 @ 250 nM” value was 12%.

Same assay, conditions: Homo sapiens, HCT-116, 120 h, first HCT-116 column (c4); MTT, three to five days; read-out: HCT-116 IC50

Compared with `CN(C)CC#Cc1ccc(S(=O)(=O)N2CCC(Nc3nc(N)c(C(=O)c4c(F)cccc4F)s3)CC2)cc1` [Example I9, 1-(4-Amino-2-{1-[4-(3-dimethylamino-prop-1-ynyl)-benzenesulfonyl]-piperidin-4-ylamino}-thiazol-5-yl)-1-(2,6-difluoro-phenyl)-methanone D-Glucuronic Acid Salt], `Nc1nc(NC2CCN(S(=O)(=O)CCNCc3ccccc3)CC2)sc1C(=O)c1c(F)cccc1F` [Example K48] is 1.7-fold higher in IC50: 100 nM for the first, 170 nM for the second.

Same assay, conditions: Homo sapiens, HCT-116, 120 h, second HCT-116 column (c5); MTT, three to five days; read-out: HCT-116 IC50

`CN(C)CC#Cc1ccc(S(=O)(=O)N2CCC(Nc3nc(N)c(C(=O)c4c(F)cccc4F)s3)CC2)cc1` [Example I9, 1-(4-Amino-2-{1-[4-(3-dimethylamino-prop-1-ynyl)-benzenesulfonyl]-piperidin-4-ylamino}-thiazol-5-yl)-1-(2,6-difluoro-phenyl)-methanone D-Glucuronic Acid Salt] and `Nc1nc(NC2CCN(S(=O)(=O)CCNCc3ccccc3)CC2)sc1C(=O)c1c(F)cccc1F` [Example K48] are the same in IC50: 500 nM for the first, 500 nM for the second.

Same assay, conditions: Homo sapiens, HCT-116, HCT116 cells; compound at 250 nM; read-out: % Inhibition HCT116 @ 250 nM

Compared with `Nc1nc(NC2CCN(S(=O)(=O)CCNC3c4ccccc4CC3O)CC2)sc1C(=O)c1c(F)cccc1F` (centres unmarked) [Example S150], `Nc1nc(NC2CCN(S(=O)(=O)CCNCc3ccccc3F)CC2)sc1C(=O)c1c(F)cccc1F` [Example S95] is higher in inhibition at 0.25 µM: 33% for the first, 51% for the second.

First: C=CCN(CC=C)CCS(=O)(=O)N1CCC(Nc2nc(N)c(C(=O)c3c(F)cccc3F)s2)CC1 [Example S32]
Second: C=CCN(C)CCS(=O)(=O)N1CCC(Nc2nc(N)c(C(=O)c3c(F)cccc3F)s2)CC1 [Example S31]
The inhibition at 0.25 µM of the first is higher: 69% for the first, 27% for the second.

Compared with `Nc1nc(NC2CCN(S(=O)(=O)CCN3CCC(CO)CC3)CC2)sc1C(=O)c1c(F)cccc1F` [Example S63], `Nc1nc(NC2CCN(S(=O)(=O)CCN3CCC(O)CC3)CC2)sc1C(=O)c1c(F)cccc1F` [Example S24] is higher in inhibition at 0.25 µM: 4% for the first, 14% for the second.

First: CC(C)(C)NCCS(=O)(=O)N1CCC(Nc2nc(N)c(C(=O)c3c(F)cccc3F)s2)CC1 [Example S81]
Second: CC(C)CNCCS(=O)(=O)N1CCC(Nc2nc(N)c(C(=O)c3c(F)cccc3F)s2)CC1 [Example S111]
The inhibition at 0.25 µM of the first is higher: 82% for the first, 54% for the second.

Going from `Nc1nc(NC2CCN(S(=O)(=O)CCNCCc3ccccc3)CC2)sc1C(=O)c1c(F)cccc1F` [Example S116] to `Nc1nc(NC2CCN(S(=O)(=O)CCNCCOc3ccccc3)CC2)sc1C(=O)c1c(F)cccc1F` [Example S149], the inhibition at 0.25 µM falls from 60% to 36%.

Compared with `CCN(CCS(=O)(=O)N1CCC(Nc2nc(N)c(C(=O)c3c(F)cccc3F)s2)CC1)CC(C)(C)O` [Example S35], `CCN(CCO)CCS(=O)(=O)N1CCC(Nc2nc(N)c(C(=O)c3c(F)cccc3F)s2)CC1` [Example S5] is lower in inhibition at 0.25 µM: 58% for the first, 26% for the second.

Going from `CC(C)N(CCNCCS(=O)(=O)N1CCC(Nc2nc(N)c(C(=O)c3c(F)cccc3F)s2)CC1)C(C)C` [Example S134] to `CN(C)CCNCCS(=O)(=O)N1CCC(Nc2nc(N)c(C(=O)c3c(F)cccc3F)s2)CC1` [Example S114], the inhibition at 0.25 µM rises from 17% to 49%.

Compared with `COc1cccc(CNCCS(=O)(=O)N2CCC(Nc3nc(N)c(C(=O)c4c(F)cccc4F)s3)CC2)c1` [Example S100], `Nc1nc(NC2CCN(S(=O)(=O)CCNCc3cccc(F)c3)CC2)sc1C(=O)c1c(F)cccc1F` [Example S99] is higher in inhibition at 0.25 µM: 38% for the first, 43% for the second.

First: CN(CCc1ccccc1)CCS(=O)(=O)N1CCC(Nc2nc(N)c(C(=O)c3c(F)cccc3F)s2)CC1 [Example S29]
Second: CN(CCc1ccccn1)CCS(=O)(=O)N1CCC(Nc2nc(N)c(C(=O)c3c(F)cccc3F)s2)CC1 [Example S26]
The inhibition at 0.25 µM of the first is higher: 18% for the first, 17% for the second.

Compared with `CN(C)C(=O)[C@H]1CCCN1CCS(=O)(=O)N1CCC(Nc2nc(N)c(C(=O)c3c(F)cccc3F)s2)CC1` [Example S66], `COC[C@@H]1CCCN1CCS(=O)(=O)N1CCC(Nc2nc(N)c(C(=O)c3c(F)cccc3F)s2)CC1` [Example S42] is lower in inhibition at 0.25 µM: 14% for the first, 12% for the second.

Compared with `Nc1nc(NC2CCN(S(=O)(=O)CCN3CCc4ccccc4C3)CC2)sc1C(=O)c1c(F)cccc1F` [Example S27], `CN1CCCN(CCS(=O)(=O)N2CCC(Nc3nc(N)c(C(=O)c4c(F)cccc4F)s3)CC2)CC1` [Example S176] is lower in inhibition at 0.25 µM: 27% for the first, 17% for the second.

First: CC1CCN(CCNCCS(=O)(=O)N2CCC(Nc3nc(N)c(C(=O)c4c(F)cccc4F)s3)CC2)CC1 [Example S163]
Second: Nc1nc(NC2CCN(S(=O)(=O)CCNC3CCC3)CC2)sc1C(=O)c1c(F)cccc1F [Example S59]
The inhibition at 0.25 µM of the first is lower: 25% for the first, 40% for the second.

First: Nc1nc(NC2CCN(S(=O)(=O)CCNCc3ccc(F)cc3F)CC2)sc1C(=O)c1c(F)cccc1F [Example S124]
Second: Nc1nc(NC2CCN(S(=O)(=O)CCNCc3c(F)cccc3F)CC2)sc1C(=O)c1c(F)cccc1F [Example S126]
The inhibition at 0.25 µM of the first is lower: 51% for the first, 68% for the second.

First: CC(CN(C)C)NCCS(=O)(=O)N1CCC(Nc2nc(N)c(C(=O)c3c(F)cccc3F)s2)CC1 (centres unmarked) [Example S130]
Second: COCC(C)NCCS(=O)(=O)N1CCC(Nc2nc(N)c(C(=O)c3c(F)cccc3F)s2)CC1 (centres unmarked) [Example S89]
The inhibition at 0.25 µM of the first is higher: 20% for the first, 17% for the second.

Compared with `COC(=O)CN(C)CCS(=O)(=O)N1CCC(Nc2nc(N)c(C(=O)c3c(F)cccc3F)s2)CC1` [Example S49], `CN(CCS(=O)(=O)N1CCC(Nc2nc(N)c(C(=O)c3c(F)cccc3F)s2)CC1)CC1OCCO1` [Example S41] is lower in inhibition at 0.25 µM: 33% for the first, 18% for the second.

Going from `Cc1ccc(CCNCCS(=O)(=O)N2CCC(Nc3nc(N)c(C(=O)c4c(F)cccc4F)s3)CC2)cc1` [Example S118] to `Cc1ccc(CNCCS(=O)(=O)N2CCC(Nc3nc(N)c(C(=O)c4c(F)cccc4F)s3)CC2)o1` [Example S164], the inhibition at 0.25 µM rises from 25% to 28%.

Compared with `CC(CCCC(C)(C)O)NCCS(=O)(=O)N1CCC(Nc2nc(N)c(C(=O)c3c(F)cccc3F)s2)CC1` (centres unmarked) [Example S162], `CCOC(=O)CC(C)NCCS(=O)(=O)N1CCC(Nc2nc(N)c(C(=O)c3c(F)cccc3F)s2)CC1` (centres unmarked) [Example S91] is lower in inhibition at 0.25 µM: 22% for the first, 10% for the second.

First: CC(O)CNCCS(=O)(=O)N1CCC(Nc2nc(N)c(C(=O)c3c(F)cccc3F)s2)CC1 (centres unmarked) [Example S110]
Second: CC(CNCCS(=O)(=O)N1CCC(Nc2nc(N)c(C(=O)c3c(F)cccc3F)s2)CC1)N(C)C (centres unmarked) [Example S131]
The inhibition at 0.25 µM of the first is lower: 16% for the first, 17% for the second.

First: COC(CNCCS(=O)(=O)N1CCC(Nc2nc(N)c(C(=O)c3c(F)cccc3F)s2)CC1)OC [Example S108]
Second: CC(C)OCCNCCS(=O)(=O)N1CCC(Nc2nc(N)c(C(=O)c3c(F)cccc3F)s2)CC1 [Example S166]
The inhibition at 0.25 µM of the first is higher: 16% for the first, 9% for the second.

First: CCN(CCS(=O)(=O)N1CCC(Nc2nc(N)c(C(=O)c3c(F)cccc3F)s2)CC1)Cc1ccncc1 [Example S45]
Second: CCCCN(CC#N)CCS(=O)(=O)N1CCC(Nc2nc(N)c(C(=O)c3c(F)cccc3F)s2)CC1 [Example S2]
The inhibition at 0.25 µM of the first is lower: 13% for the first, 18% for the second.

Going from `Nc1nc(NC2CCN(S(=O)(=O)CCNCc3ccc4c(c3)CCO4)CC2)sc1C(=O)c1c(F)cccc1F` [Example S169] to `Nc1nc(NC2CCN(S(=O)(=O)CCNCc3ccco3)CC2)sc1C(=O)c1c(F)cccc1F` [Example S72], the inhibition at 0.25 µM rises from 17% to 19%.

First: CCCCN(CCC#N)CCS(=O)(=O)N1CCC(Nc2nc(N)c(C(=O)c3c(F)cccc3F)s2)CC1 [Example S37]
Second: Nc1nc(NC2CCN(S(=O)(=O)CCN(CCO)CCO)CC2)sc1C(=O)c1c(F)cccc1F [Example S6]
The inhibition at 0.25 µM of the first is higher: 24% for the first, 13% for the second.

Compared with `CC1CC(NCCS(=O)(=O)N2CCC(Nc3nc(N)c(C(=O)c4c(F)cccc4F)s3)CC2)CC(C)(C)C1` (centres unmarked) [Example S136], `Nc1nc(NC2CCN(S(=O)(=O)CCNC3CCSC3=O)CC2)sc1C(=O)c1c(F)cccc1F` (centres unmarked) [Example S152] is higher in inhibition at 0.25 µM: 81% for the first, 95% for the second.

First: CN(C)[C@H]1CCN(CCS(=O)(=O)N2CCC(Nc3nc(N)c(C(=O)c4c(F)cccc4F)s3)CC2)C1 [Example S61]
Second: CN(CCS(=O)(=O)N1CCC(Nc2nc(N)c(C(=O)c3c(F)cccc3F)s2)CC1)C1CCCCC1 [Example S9]
The inhibition at 0.25 µM of the first is lower: 8% for the first, 43% for the second.

Going from `CC(C)(C)N(CCO)CCS(=O)(=O)N1CCC(Nc2nc(N)c(C(=O)c3c(F)cccc3F)s2)CC1` [Example S3] to `CC(O)CN(CCS(=O)(=O)N1CCC(Nc2nc(N)c(C(=O)c3c(F)cccc3F)s2)CC1)CC(C)O` (centres unmarked) [Example S11], the inhibition at 0.25 µM falls from 25% to 13%.

Compared with `CC(C)(NCCS(=O)(=O)N1CCC(Nc2nc(N)c(C(=O)c3c(F)cccc3F)s2)CC1)c1ccccc1` [Example S173], `CC(NCCS(=O)(=O)N1CCC(Nc2nc(N)c(C(=O)c3c(F)cccc3F)s2)CC1)c1ccccc1` (centres unmarked) [Example S78] is higher in inhibition at 0.25 µM: 35% for the first, 49% for the second.

Compared with `Nc1nc(NC2CCN(S(=O)(=O)CCNCc3ccccn3)CC2)sc1C(=O)c1c(F)cccc1F` [Example S86], `Nc1nc(NC2CCN(S(=O)(=O)CCNCC(O)c3ccccc3)CC2)sc1C(=O)c1c(F)cccc1F` (centres unmarked) [Example S109] is higher in inhibition at 0.25 µM: 11% for the first, 19% for the second.
